Experimental data from US20120230991A1, “METHODS AND COMPOUNDS FOR ENHANCING ANTI-CANCER THERAPY” (priority 2008, published 2012).

How the values were obtained:
[1] = system: A549 Human NSCLC Cell Lines; test: Relative cell numbers of A549 cells (wild type, shControl, Axl/Mer knockdown) after 48 hours of drug; assay type: cell-based; settings: for IC50: 48 hours, relative cell number; for sensitivity of the shAxl9-D3 Axl knockdown clone: A549 shAxl9-D3, 48 hours
[2] = system: A549 Human NSCLC Cell Lines; test: BrdU incorporation ELISA, relative cell proliferation of A549 cells, 48 hours; assay type: cell-based; settings: for IC50: BrdU assay
Experimental: The relative cell proliferation was determined via a BrdU incorporation ELISA. IC50 values were determined by non-linear regression of data from at least three independent experiments performed in triplicate (see Table 3).

G12 astrocytoma cells = test: MTT assay, chemosensitivity of G12 astrocytoma control and knockdown cells; assay type: cell-based; settings: 48 h, MTT
Experimental: (§1) G12 control (shControl) and knockdown cells (shMer1 and shMer4; shAxl8 and shAxl9) were plated in 96-well plates at concentrations determined to allow linear growth over 3 days: A) cells were treated with varying concentrations of temozolomide and relative cell number was assessed 48 h after treatment by colorimetric assessment/MTT assay. Error bars denote experiments performed in triplicate. A172 control (shControl) and knockdown cells (shMer1A and shMer1B; shAxl8 and shAxl9) were plated in 96-well plates at concentrations determined to allow linear growth over 3 days: B) cells were treated with varying concentrations of carboplatin and relative cell number was assessed 48 h after treatment by colorimetric assessment/MTT assay. Error bars represent three independent experiments performed in triplicate.
(§2) Table 4 provides the IC50 with 95% CI for G12 and A172 control and Mer and Axl knockdown cells, in response to chemotherapy. In Table 4, ‘NR’ indicates an IC50 was never reached. ‘IND’ represents that that CI was indeterminate. The IC50 for each knockdown line was compared to the control line, and an ‘*’ represents that the comparison is statistically different while an ‘NS’ represents that there was no statistically significant difference because either the CI was indeterminate (as with the G12 shAxl9 line treated with carboplatin) or it overlapped with the shControl CI.

A172 glioblastoma cells = test: MTT assay, chemosensitivity of A172 control and knockdown cells; assay type: cell-based; settings: Homo sapiens, A 172, 48 h, MTT
Experimental: as §1, §2

REH cells [3] = test: MTT assay, REH cells (wild type, shControl, Mer knockdown) treated with methotrexate for 48 hours; assay type: cell-based; settings: REH shMer4A, shMer4B vs shControl
Source text: Inhibition of Mer expression results in increased chemosensitivity of REH cells. […] Statistical differences versus shControl are indicated by non-overlapping confidence intervals (95% CI). No significant difference between wild type and shControl was observed.

REH cells [4] = test: Flow cytometry of apoptotic and dead cells (YO-PRO-1 / propidium iodide), REH cells; assay type: cell-based; settings: REH shMer4A, shMer4B vs shControl, 48 hours
Source text: Apoptotic and dead cells were identified by flow cytometric analysis of cells stained with YO-PRO®-1 and propidium iodide: A) representative flow cytometry profiles. The percentage of apoptotic cells is indicated in the lower-right quadrant. The combined percentage of cells in the two upper quadrants indicates the fraction of dead cells.
Apoptotic and dead cells were identified by flow cytometric analysis of cells stained with YO-PRO®-1 and propidium iodide: A) representative flow cytometry profiles. The percentage of apoptotic cells is indicated in the lower-right quadrant. The combined percentage of cells in the two upper quadrants indicates the fraction of dead cells. B) mean values and standard errors derived from 3 independent experiments. Results were tested for significance using two-way repeated measures ANOVA and Bonferroni posttests to compare shControl and Mer knockdown cells at equivalent drug concentrations. Significant differences in apoptotic cell populations are indicated by asterisks (* p<0.01, ** p<0.001). Significant differences in the number of dead cells were also observed († p<0.01, ‡‡ p<0.001). No significant differences between wild type and shControl cells were observed.

[5] = system: 697 Human B-ALL Cell Lines; test: MTT assay, chemosensitivity of 697 cells (wild type, shControl, Mer knockdown), 48 hours; assay type: cell-based
Experimental: Inhibition of Mer expression results in increased chemosensitivity in 697 cells. […] IC50 values were determined by non-linear regression of data from at least three independent experiments performed in triplicate, as shown in Table 1.

697 cells = test: Flow cytometry of apoptotic and dead cells (YO-PRO-1 / propidium iodide), 697 cells; assay type: cell-based, human; settings: 697 shMer1A vs shControl, 48 hours
Experimental: Apoptotic and dead cells were identified by flow cytometric analysis of cells stained with YO-PRO®-1 and propidium iodide: A) representative flow cytometry profiles; B) mean values and standard errors derived from 3 independent experiments.
Cultures of shControl or shMer1A 697 cells were exposed to 6-MP, VP-16, or medium only for 48 hours: A) Apoptotic and dead cells were identified by flow cytometric analysis of cells stained with YO-PRO®-1 and propidium iodide: Representative flow cytometry profiles; B) the percentages of apoptotic and dead cells are indicated in lower-right and upper-right quadrants, respectively. Mean values and standard errors derived from 3 independent experiments. Results were tested for significance using two-way ANOVA and Bonferroni posttests to compare shControl and shMer1A cells at equivalent drug concentrations.

[6] = 697 shMer1A (Mer knockdown) cells
[7] = 697 shMer1B (Mer knockdown) cells

SMILES: N.N.[Cl][Pt][Cl] [Cispl, cisplatin]
- IC50 ([1]; A549 Wild Type): 6.48 µM
- IC50 ([1]; A549 shAxl8-G5 (Axl knockdown)): 0.51 µM
- IC50 ([1]; A549 shAxl9-D3 (Axl knockdown)): 3.4 µM
- sensitivity of the shAxl9-D3 Axl knockdown clone [1]: more sensitive
- IC50 ([1]; A549 shControl): 8.56 µM
- IC50 ([1]; A549 shMer1-G8 (Mer knockdown)): 3 µM
- IC50 ([2]; A549 Wild Type, 48 hours): 2.1 µM
- IC50 ([2]; A549 shAxl8-G5, 48 hours): 2.7 µM
- IC50 ([2]; A549 shAxl9-D3, 48 hours): 2.3 µM
- IC50 ([2]; A549 shControl, 48 hours): 1.7 µM
- IC50 ([2]; A549 shMer1-G8, 48 hours): 1 µM

SMILES: Cn1nnc2c(C(N)=O)ncn2c1=O [Temozolomide, temozolomide]
- IC50 (G12 astrocytoma cells; G12 shAxl8, 48 h): 6.9 µM
- IC50 (G12 astrocytoma cells; G12 shAxl9, 48 h): 1.8 µM
- IC50 (G12 astrocytoma cells; G12 shControl): 68.6 µM
- IC50 (G12 astrocytoma cells; G12 shMer1, 48 h): 18.2 µM
- IC50 (G12 astrocytoma cells; G12 shMer4, 48 h): 1 µM
- IC50 (A172 glioblastoma cells; A172 shAxl8, 48 h): 27.6 µM
- IC50 (A172 glioblastoma cells; A172 shAxl9, 48 h): 38.9 µM
- IC50 (A172 glioblastoma cells; A172 shControl, 48 h): 51.4 µM
- IC50 (A172 glioblastoma cells; A172 shMer1A, 48 h): 21.3 µM
- IC50 (A172 glioblastoma cells; A172 shMer1B, 48 h): 7.7 µM

SMILES: CN(Cc1cnc2nc(N)nc(N)c2n1)c1ccc(C(=O)N[C@@H](CCC(=O)O)C(=O)O)cc1 [MTX, methotrexate]
- IC50 values in Mer knockdown cells in comparison to shControl cells (REH cells [3]): significantly lower IC50 values
- apoptotic cell death with Mer knockdown (REH cells [4]): increased apoptotic cell death
- IC50 ([5]; 697 Wild Type cells): 0.0275 µM
- IC50 ([5]; 697 shControl cells): 0.0278 µM
- IC50 [5, 6]: 0.0123 µM
- IC50 [5, 7]: 0.0118 µM

SMILES: COc1cc([C@@H]2c3cc4c(cc3[C@@H](O[C@@H]3O[C@@H]5CO[C@@H](C)O[C@H]5[C@H](O)[C@H]3O)[C@H]3COC(=O)[C@H]23)OCO4)cc(OC)c1O [VP-16, etoposide]
- sensitivity of the shAxl9-D3 Axl knockdown clone [1]: more sensitive
- IC50 ([1]; Homo sapiens, A549, 48 h, A549 Wild Type): 2.2 µM
- IC50 ([1]; Homo sapiens, A549, 48 h, A549 shAxl8-G5 (Axl knockdown)): 0.33 µM
- IC50 ([1]; Homo sapiens, A549, 48 h, A549 shAxl9-D3 (Axl knockdown)): 1.01 µM
- IC50 ([1]; Homo sapiens, A549, 48 h, A549 shControl): 3.32 µM
- IC50 ([1]; Homo sapiens, A549, 48 h, A549 shMer1-G8 (Mer knockdown)): 3.84 µM
- sensitivity of A549 cells with inhibition of Mer expression ([2]; A549 Mer1-G8 knockdown, BrdU, 48 hours): increased sensitivity
- IC50 ([2]; Homo sapiens, A549, 48 h, A549 Wild Type, 48 hours): 0.72 µM
- IC50 ([2]; Homo sapiens, A549, 48 h, A549 shAxl8-G5, 48 hours): 1.4 µM
- IC50 ([2]; Homo sapiens, A549, 48 h, A549 shAxl9-D3, 48 hours): 0.59 µM
- IC50 ([2]; Homo sapiens, A549, 48 h, A549 shControl, 48 hours): 0.91 µM
- IC50 ([2]; Homo sapiens, A549, 48 h, A549 shMer1-G8, 48 hours): 0.37 µM
- induction of apoptotic cell death with Mer knockdown (697 cells): increased induction of apoptotic cell death
- IC50 ([5]; 697 Wild Type cells): 0.181 µM
- IC50 ([5]; 697 shControl cells): 0.173 µM
- IC50 [5, 6]: 0.054 µM
- IC50 [5, 7]: 0.0603 µM
